This note sets out measurements from US11390604B2 (Hoffmann-La Roche Inc., priority 2019, dated 2022).

The assay deals with Acinetobacter baumannii ATCC 17961. In words: Antimicrobial susceptibility testing: 90% growth inhibitory concentration (IC90) determination. The assay is classed as cell-based. Particulars: ATCC17961, Acinetobacter baumannii ATCC 17961, Iso-Sensitest broth, read-out: ATCC 17961 IC90. Summed up:
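Growth was followed kinetically by OD600 at 20-min intervals for 16 h at 35±2 °C, with ~5×10^5 CFU/ml in Iso-Sensitest broth. Compounds were tested as twofold dilutions (e.g. 50–0.097 μM final). The concentration giving 90% inhibition of log-phase growth was reported.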

Molecules are shown by their SMILES.

Consider `CCc1cc(NC(=O)c2ncc(-c3cn(CC#N)nc3C(F)(F)F)n2C)ccc1C(=O)N1CCN(C(=O)N2CCCC(N)C2)CC1` (centres unmarked) [Example 133, N-[4-[4-(3-aminopiperidine-1-carbonyl)piperazine-1-carbonyl]-3-ethylphenyl]-5-[1-(cyanomethyl)-3-(trifluoromethyl)pyrazol-4-yl]-1-methylimidazole-2-carboxamide;formic acid], for which the IC90 came to 0.775 µM.

Consider `CCc1cc(NC(=O)c2ncc(-c3cn(CC#N)nc3C(F)(F)F)n2C)ccc1C(=O)N1CCN(C(=O)N2CC3(CC(N)C3)C2)CC1` [Example 134, N-[4-[4-(6-amino-2-azaspiro[3.3]heptane-2-carbonyl)piperazine-1-carbonyl]-3-ethylphenyl]-5-[1-(cyanomethyl)-3-(trifluoromethyl)pyrazol-4-yl]-1-methylimidazole-2-carboxamide;formic acid], for which the IC90 was 0.86 µM.

For the compound `CCc1cc(NC(=O)c2ncc(-c3cn(CC#N)nc3C(F)(F)F)n2C)ccc1C(=O)N1CCN(C(=O)N2CCNC(C)C2)CC1` (centres unmarked) [Example 135, 5-[1-(cyanomethyl)-3-(trifluoromethyl)pyrazol-4-yl]-N-[3-ethyl-4-[4-(3-methylpiperazine-1-carbonyl)piperazine-1-carbonyl]phenyl]-1-methylimidazole-2-carboxamide;formic acid], the IC90 is 0.885 µM.

In the case of `CCc1cc(NC(=O)c2ncc(-c3cn(CC#N)nc3C(F)(F)F)n2C)ccc1C(=O)N1CCN(C(=O)N2CCC(C)(N)CC2)CC1` [Example 136, N-[4-[4-(4-amino-4-methylpiperidine-1-carbonyl)piperazine-1-carbonyl]-3-ethylphenyl]-5-[1-(cyanomethyl)-3-(trifluoromethyl)pyrazol-4-yl]-1-methylimidazole-2-carboxamide;formic acid], the IC90 came out at 0.741 µM.

Regarding `CCc1cc(NC(=O)c2ncc(-c3cn(CC#N)nc3C(F)(F)F)n2C)ccc1C(=O)N1CCN(C(=O)N2CCC(CN)C2)CC1` (centres unmarked) [Example 138, N-[4-[4-[3-(aminomethyl)pyrrolidine-1-carbonyl]piperazine-1-carbonyl]-3-ethylphenyl]-5-[1-(cyanomethyl)-3-(trifluoromethyl)pyrazol-4-yl]-1-methylimidazole-2-carboxamide;formic acid], the IC90 is 0.888 µM.

Regarding `CCc1cc(NC(=O)c2ncc(-c3cn(CC#N)nc3C(F)(F)F)n2C)ccc1C(=O)N1CCN(C(=O)N2CCCC2CN)CC1` (centres unmarked) [Example 139, N-[4-[4-[2-(aminomethyl)pyrrolidine-1-carbonyl]piperazine-1-carbonyl]-3-ethylphenyl]-5-[1-(cyanomethyl)-3-(trifluoromethyl)pyrazol-4-yl]-1-methylimidazole-2-carboxamide;formic acid], the 90% effect concentration (IC90) is 1.16 µM.

As to `CCc1cc(NC(=O)c2ncc(-c3cn(CC#N)nc3C(F)(F)F)n2C)ccc1C(=O)N1CCN(C(=O)NC2C3CNCC32)CC1` (centres unmarked) [Example 140, N-(3-azabicyclo[3.1.0]hexan-6-yl)-4-[4-[[5-[1-(cyanomethyl)-3-(trifluoromethyl)pyrazol-4-yl]-1-methylimidazole-2-carbonyl]amino]-2-ethylbenzoyl]piperazine-1-carboxamide;formic acid], the IC90 is 1.05 µM.

For the compound `CCc1cc(NC(=O)c2ncc(-c3cn(CC#N)nc3C(F)(F)F)n2C)ccc1C(=O)N1CCN(C(=O)N2CC3CC2CN3)CC1` (centres unmarked) [Example 141, 5-[1-(cyanomethyl)-3-(trifluoromethyl)pyrazol-4-yl]-N-[4-[4-(2,5-diazabicyclo[2.2.1]heptane-2-carbonyl)piperazine-1-carbonyl]-3-ethylphenyl]-1-methylimidazole-2-carboxamide;formic acid], the IC90 worked out at 0.887 µM.

As to `Cn1c(-c2cn(CC(F)F)nc2C(F)(F)F)cnc1C(=O)Nc1ccc(C(=O)N2CCN(C(=O)N[C@H]3CCNC3)CC2)c(Cl)c1` [Example 142, 4-[2-chloro-4-[[5-[1-(2,2-difluoroethyl)-3-(trifluoromethyl)pyrazol-4-yl]-1-methylimidazole-2-carbonyl]amino]benzoyl]-N-[(3S)-pyrrolidin-3-yl]piperazine-1-carboxamide;formic acid], the IC90 was found to be 0.343 µM.

As to `Cn1c(-c2cn(CC#N)nc2C(F)(F)F)cnc1C(=O)Nc1ccc(C(=O)N2CCN(C(=O)N[C@H]3CCNC3)CC2)c(Cl)c1` [Example 143, 4-[2-chloro-4-[[5-[1-(cyanomethyl)-3-(trifluoromethyl)pyrazol-4-yl]-1-methylimidazole-2-carbonyl]amino]benzoyl]-N-[(3S)-pyrrolidin-3-yl]piperazine-1-carboxamide;formic acid], the IC90 was 0.426 µM.

Take `Cn1c(-c2cn(CCF)nc2C(F)(F)F)cnc1C(=O)Nc1ccc(C(=O)N2CCN(C(=O)NC3CNC3)CC2)c(Cl)c1` [Example 144, N-(azetidin-3-yl)-4-[2-chloro-4-[[5-[1-(2-fluoroethyl)-3-(trifluoromethyl)pyrazol-4-yl]-1-methylimidazole-2-carbonyl]amino]benzoyl]piperazine-1-carboxamide;formic acid]: the IC90 amounted to 0.621 µM.

Consider `Cn1c(-c2cn(CCF)nc2C(F)(F)F)cnc1C(=O)Nc1ccc(C(=O)N2CCN(C3=NC(CN)CO3)CC2)c(Cl)c1` (centres unmarked) [Example 145, N-[4-[4-[4-(aminomethyl)-4,5-dihydro-1,3-oxazol-2-yl]piperazine-1-carbonyl]-3-chlorophenyl]-5-[1-(2-fluoroethyl)-3-(trifluoromethyl)pyrazol-4-yl]-1-methylimidazole-2-carboxamide;formic acid], for which the IC90 worked out at 0.928 µM.

In the case of `Cn1c(-c2cn(CC(F)F)nc2C(F)(F)F)cnc1C(=O)Nc1ccc(C(=O)N2CCN(C(=O)NC3CNC3)CC2)c(Cl)c1` [Example 146, N-(azetidin-3-yl)-4-[2-chloro-4-[[5-[1-(2,2-difluoroethyl)-3-(trifluoromethyl)pyrazol-4-yl]-1-methylimidazole-2-carbonyl]amino]benzoyl]piperazine-1-carboxamide;formic acid], the IC90 stood at 0.434 µM.

On to `C=CCn1cc(-c2cnc(C(=O)Nc3ccc(C(=O)N4CCN(C(=O)NC5CNC5)CC4)c(Cl)c3)n2C)c(C(F)(F)F)n1` [Example 147, N-(azetidin-3-yl)-4-[2-chloro-4-[[1-methyl-5-[1-prop-2-enyl-3-(trifluoromethyl)pyrazol-4-yl]imidazole-2-carbonyl]amino]benzoyl]piperazine-1-carboxamide], for which the IC90 was 0.289 µM.

Consider `Cn1c(-c2cn(CC(F)(F)F)nc2C(F)(F)F)cnc1C(=O)Nc1ccc(C(=O)N2CCN(C3=NC(CN)CO3)CC2)c(Cl)c1` (centres unmarked) [Example 148, N-[4-[4-[4-(aminomethyl)-4,5-dihydro-1,3-oxazol-2-yl]piperazine-1-carbonyl]-3-chlorophenyl]-1-methyl-5-[1-(2,2,2-trifluoroethyl)-3-(trifluoromethyl)pyrazol-4-yl]imidazole-2-carboxamide], for which the IC90 came out at 0.524 µM.

On to `Cn1c(-c2cn(CC(F)(F)F)nc2C(F)(F)F)cnc1C(=O)Nc1ccc(C(=O)N2CCN(C(=O)NC3CNC3)CC2)c(Cl)c1` [Example 149, N-(azetidin-3-yl)-4-[2-chloro-4-[[1-methyl-5-[1-(2,2,2-trifluoroethyl)-3-(trifluoromethyl)pyrazol-4-yl]imidazole-2-carbonyl]amino]benzoyl]piperazine-1-carboxamide], for which the IC90 came out at 0.55 µM.

`Cn1c(-c2cn(C3CCC3)nc2C(F)(F)F)cnc1C(=O)Nc1ccc(C(=O)N2CCN(C(=O)NC3CNC3)CC2)c(Cl)c1` [Example 150, N-(azetidin-3-yl)-4-[2-chloro-4-[[5-[1-cyclobutyl-3-(trifluoromethyl)pyrazol-4-yl]-1-methylimidazole-2-carbonyl]amino]benzoyl]piperazine-1-carboxamide]: the concentration for an effect of 90% (IC90) was 0.324 µM.

For the compound `Cn1c(-c2cn(CC#N)nc2C(F)(F)F)cnc1C(=O)Nc1ccc(C(=O)N2CCN(C(=O)NC3CNC3)CC2)c(Cl)c1` [Example 151], the IC90 amounted to 0.475 µM.

Take `CCc1cc(NC(=O)c2ncc(-c3cn(CC(F)F)nc3C(F)(F)F)n2C)ccc1C(=O)N1CCN(C(=O)C2CCN(C)CC2)CC1` [Example 152, 5-[1-(2,2-difluoroethyl)-3-(trifluoromethyl)pyrazol-4-yl]-N-[3-ethyl-4-[4-(1-methylpiperidine-4-carbonyl)piperazine-1-carbonyl]phenyl]-1-methylimidazole-2-carboxamide]: the IC90 is 1.17 µM.

With `CCc1cc(NC(=O)c2ncc(-c3cn(CC(F)F)nc3C(F)(F)F)n2C)ccc1C(=O)N1CCN(C(=O)C2CNC2)CC1` [Example 153, N-[4-[4-(azetidine-3-carbonyl)piperazine-1-carbonyl]-3-ethylphenyl]-5-[1-(2,2-difluoroethyl)-3-(trifluoromethyl)pyrazol-4-yl]-1-methylimidazole-2-carboxamide;formic acid], the IC90 is 1 µM.

`CCc1cc(NC(=O)c2ncc(-c3cn(CC(F)F)nc3C(F)(F)F)n2C)ccc1C(=O)N1CCN(C(=O)C2CCNCC2)CC1` [Example 154, 5-[1-(2,2-difluoroethyl)-3-(trifluoromethyl)pyrazol-4-yl]-N-[3-ethyl-4-[4-(piperidine-4-carbonyl)piperazine-1-carbonyl]phenyl]-1-methylimidazole-2-carboxamide;formic acid]: the IC90 was 0.955 µM.

As for `CCc1cc(NC(=O)c2ncc(-c3cn(CC(F)F)nc3C(F)(F)F)n2C)ccc1C(=O)N1CCN(C(=O)C2(O)CCNCC2)CC1` [Example 155, 5-[1-(2,2-difluoroethyl)-3-(trifluoromethyl)pyrazol-4-yl]-N-[3-ethyl-4-[4-(4-hydroxypiperidine-4-carbonyl)piperazine-1-carbonyl]phenyl]-1-methylimidazole-2-carboxamide;formic acid], the IC90 came out at 1.15 µM.

For `CCc1cc(NC(=O)c2ncc(-c3cn(CC(F)F)nc3C(F)(F)F)n2C)ccc1C(=O)N1CCN(C(=O)[C@@H]2CCNC2)CC1` [Example 156, 5-[1-(2,2-difluoroethyl)-3-(trifluoromethyl)pyrazol-4-yl]-N-[3-ethyl-4-[4-[(3R)-pyrrolidine-3-carbonyl]piperazine-1-carbonyl]phenyl]-1-methylimidazole-2-carboxamide;formic acid], the IC90 was 0.758 µM.

What is called IC90 is the point of the concentration-response curve where the effect stands at 90%.
